Experimental data as given in PMC11767490, “A Bis-Glycosylamine Strategy for the Synthesis of Dimeric Iminosugars Based on a DAB-1 Scaffold” (Molecules, 2025).
Like-named read-outs stand apart in the source and are kept apart here. Marks after values point to notes of the source that are not given here.

Key:
[1] = biological target: T1, α-galactosidase (green coffee) (Coffea arabica, UniProt Q42656); assay: glycosidase inhibition assay, α-galactosidase from green coffee bean; assay type: biochemical; details: 1 mM inhibitor; pH 5.6; read-out: % inhibition at 1 mM concentration of inhibitor
T1 construct: purchased Sigma Chemical Co
T1 sequence (Q42656 16-378): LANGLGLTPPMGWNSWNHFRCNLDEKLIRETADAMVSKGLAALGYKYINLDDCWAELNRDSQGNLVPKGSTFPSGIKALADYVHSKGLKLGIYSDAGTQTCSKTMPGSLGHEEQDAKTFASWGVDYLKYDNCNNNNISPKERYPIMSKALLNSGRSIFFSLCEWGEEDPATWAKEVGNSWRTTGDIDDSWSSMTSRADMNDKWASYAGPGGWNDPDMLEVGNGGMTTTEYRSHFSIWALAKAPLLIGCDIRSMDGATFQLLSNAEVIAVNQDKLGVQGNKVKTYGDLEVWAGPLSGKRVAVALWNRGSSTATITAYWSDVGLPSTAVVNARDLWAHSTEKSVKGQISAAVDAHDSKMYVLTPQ
Procedure: (§1) A prepared sample of DAB-1 8 was also tested under the same conditions for ease of comparison. A first set of biological assays was effected at 1 mM concentration of inhibitor. […] Former results from our laboratories have always followed this empirical rule.
(§2) All the enzymes were purchased from Sigma Chemical Co. In a typical experiment, the glycosidase (0.013 U/mL) was pre-incubated at 33 °C for 5 min in the presence of the inhibitor in 50 mM acetate buffer (pH 5.6, except for rice α-glucosidase pH 5.1 and yeast α-glucosidase pH 6.2). The reaction was started by the addition of the appropriate substrate (p-nitrophenyl glycoside, 1 mM concentration) to a final volume of 250 µL. The reaction was stopped after 10–15 min (depending on the enzyme) by the addition of 350 µL of 0.4 M Na2CO3. The released p-nitrophenolate was quantified spectrophotometrically at 415 nm with a microplate reader (300 µL of the reaction mixture per well). […] All the assays were performed in duplicate (less than 10% variability in each case).

[2] = biological target: T2, α-glucosidase (rice) (Oryza sativa subsp. japonica, UniProt Q653V7); assay: glycosidase inhibition assay, α-glucosidase from rice; assay type: biochemical; details: for inhibition at 1000 µM: pH 5.1, 1 mM inhibitor, pH 5.1, p-nitrophenyl glycoside 1 mM, read-out: % inhibition at 1 mM concentration of inhibitor
T2 construct: purchased Sigma Chemical Co
T2 sequence (Q653V7 34-885): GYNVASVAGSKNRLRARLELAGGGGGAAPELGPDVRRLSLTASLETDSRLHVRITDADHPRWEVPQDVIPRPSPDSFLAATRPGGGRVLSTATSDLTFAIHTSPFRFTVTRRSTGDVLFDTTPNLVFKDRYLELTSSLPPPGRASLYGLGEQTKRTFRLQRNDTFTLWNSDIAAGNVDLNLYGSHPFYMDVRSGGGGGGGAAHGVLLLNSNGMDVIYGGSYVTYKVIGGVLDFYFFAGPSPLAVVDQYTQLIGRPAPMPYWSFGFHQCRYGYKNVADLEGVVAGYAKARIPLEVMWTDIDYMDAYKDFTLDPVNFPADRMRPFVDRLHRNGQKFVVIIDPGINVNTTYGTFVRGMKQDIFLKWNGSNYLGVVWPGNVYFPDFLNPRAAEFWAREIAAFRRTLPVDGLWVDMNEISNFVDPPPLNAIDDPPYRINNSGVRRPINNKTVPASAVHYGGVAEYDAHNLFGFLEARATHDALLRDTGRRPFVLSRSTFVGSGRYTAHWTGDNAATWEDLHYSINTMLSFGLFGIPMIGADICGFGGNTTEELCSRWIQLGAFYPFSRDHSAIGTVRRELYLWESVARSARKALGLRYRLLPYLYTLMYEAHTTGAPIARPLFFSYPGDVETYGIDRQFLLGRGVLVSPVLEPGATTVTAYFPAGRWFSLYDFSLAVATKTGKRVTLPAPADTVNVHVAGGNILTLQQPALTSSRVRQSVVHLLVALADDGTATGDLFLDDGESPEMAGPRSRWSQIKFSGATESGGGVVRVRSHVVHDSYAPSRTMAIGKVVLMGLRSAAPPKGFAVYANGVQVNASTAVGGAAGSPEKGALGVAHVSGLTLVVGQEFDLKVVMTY
Procedure: as §1, §2

[3] = biological target: T3, α-mannosidase (Jack bean) (Canavalia ensiformis, UniProt C0HJB3); assay: glycosidase inhibition assay, α-mannosidase from Jack bean; assay type: biochemical
T3 construct: purchased Sigma Chemical Co
T3 sequence (C0HJB3 1-981): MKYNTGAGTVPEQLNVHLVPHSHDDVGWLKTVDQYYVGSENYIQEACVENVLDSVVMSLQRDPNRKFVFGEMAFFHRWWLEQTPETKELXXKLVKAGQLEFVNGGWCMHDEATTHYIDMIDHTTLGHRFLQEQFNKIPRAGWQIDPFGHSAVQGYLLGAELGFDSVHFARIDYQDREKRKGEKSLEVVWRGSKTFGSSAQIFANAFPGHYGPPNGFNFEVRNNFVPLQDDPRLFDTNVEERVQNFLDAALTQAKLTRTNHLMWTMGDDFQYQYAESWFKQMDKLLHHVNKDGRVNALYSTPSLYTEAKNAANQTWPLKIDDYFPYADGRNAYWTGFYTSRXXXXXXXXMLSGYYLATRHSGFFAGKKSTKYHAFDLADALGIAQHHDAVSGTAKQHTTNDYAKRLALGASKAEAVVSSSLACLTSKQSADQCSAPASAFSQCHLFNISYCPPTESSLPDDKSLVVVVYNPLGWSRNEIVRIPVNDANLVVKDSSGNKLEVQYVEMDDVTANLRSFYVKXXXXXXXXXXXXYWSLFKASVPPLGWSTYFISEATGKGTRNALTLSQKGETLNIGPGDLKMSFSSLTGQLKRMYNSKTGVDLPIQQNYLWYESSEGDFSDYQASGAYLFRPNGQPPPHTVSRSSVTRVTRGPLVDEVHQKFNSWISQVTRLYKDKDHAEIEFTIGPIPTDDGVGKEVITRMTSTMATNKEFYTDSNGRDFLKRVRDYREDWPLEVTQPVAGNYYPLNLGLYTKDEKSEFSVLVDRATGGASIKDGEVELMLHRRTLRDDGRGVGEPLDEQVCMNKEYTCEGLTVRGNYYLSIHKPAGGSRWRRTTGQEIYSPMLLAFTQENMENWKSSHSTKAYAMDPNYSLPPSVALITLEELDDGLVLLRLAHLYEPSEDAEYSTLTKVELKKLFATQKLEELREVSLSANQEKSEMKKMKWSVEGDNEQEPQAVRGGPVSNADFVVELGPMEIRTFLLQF
Procedure: as §1, §2

[4] = biological target: T4, β-galactosidase (Asp. orizae) (Aspergillus oryzae, UniProt Q2UCU3); assay: glycosidase inhibition assay, β-galactosidase from A. orizae; assay type: biochemical; details: for inhibition at 1000 µM: pH 5.6, read-out: % inhibition at 1 mM concentration of inhibitor; for IC50: pH 5.6
T4 construct: purchased Sigma Chemical Co
T4 sequence (Q2UCU3 19-1005): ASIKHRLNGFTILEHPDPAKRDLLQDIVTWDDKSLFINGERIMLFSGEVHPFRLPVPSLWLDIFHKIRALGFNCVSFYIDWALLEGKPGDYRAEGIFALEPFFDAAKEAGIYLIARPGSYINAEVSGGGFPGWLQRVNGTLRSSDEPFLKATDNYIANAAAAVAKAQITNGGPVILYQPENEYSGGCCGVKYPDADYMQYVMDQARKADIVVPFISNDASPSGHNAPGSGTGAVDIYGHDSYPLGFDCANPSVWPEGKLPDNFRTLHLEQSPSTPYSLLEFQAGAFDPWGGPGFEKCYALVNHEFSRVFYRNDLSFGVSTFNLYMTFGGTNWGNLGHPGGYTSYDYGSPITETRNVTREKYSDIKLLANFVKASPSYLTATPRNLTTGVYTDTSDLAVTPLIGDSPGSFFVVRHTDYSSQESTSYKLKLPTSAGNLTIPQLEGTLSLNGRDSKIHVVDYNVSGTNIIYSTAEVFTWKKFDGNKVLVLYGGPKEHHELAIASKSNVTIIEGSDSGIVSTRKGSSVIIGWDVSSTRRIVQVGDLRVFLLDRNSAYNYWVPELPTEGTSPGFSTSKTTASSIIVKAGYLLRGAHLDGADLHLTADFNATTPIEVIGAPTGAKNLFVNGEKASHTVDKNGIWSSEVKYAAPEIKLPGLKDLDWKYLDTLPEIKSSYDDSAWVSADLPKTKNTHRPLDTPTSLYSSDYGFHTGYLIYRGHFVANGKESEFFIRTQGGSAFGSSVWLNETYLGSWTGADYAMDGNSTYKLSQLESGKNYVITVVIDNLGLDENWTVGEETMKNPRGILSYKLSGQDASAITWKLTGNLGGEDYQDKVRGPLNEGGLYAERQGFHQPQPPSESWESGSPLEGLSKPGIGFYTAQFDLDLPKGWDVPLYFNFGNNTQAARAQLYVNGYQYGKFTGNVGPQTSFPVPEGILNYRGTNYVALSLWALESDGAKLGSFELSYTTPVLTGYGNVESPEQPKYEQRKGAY
Procedure: as §1, §2

[5] = biological target: T5, α-glucosidase (Sac. cerevisiae) (Saccharomyces cerevisiae, UniProt P53341); assay: glycosidase inhibition assay, α-glucosidase from yeast; assay type: biochemical; details: for inhibition at 1000 µM: pH 6.2, read-out: % inhibition at 1 mM concentration of inhibitor, 1 mM inhibitor, negative values mean activation
T5 construct: purchased Sigma Chemical Co
T5 sequence (P53341 whole entry): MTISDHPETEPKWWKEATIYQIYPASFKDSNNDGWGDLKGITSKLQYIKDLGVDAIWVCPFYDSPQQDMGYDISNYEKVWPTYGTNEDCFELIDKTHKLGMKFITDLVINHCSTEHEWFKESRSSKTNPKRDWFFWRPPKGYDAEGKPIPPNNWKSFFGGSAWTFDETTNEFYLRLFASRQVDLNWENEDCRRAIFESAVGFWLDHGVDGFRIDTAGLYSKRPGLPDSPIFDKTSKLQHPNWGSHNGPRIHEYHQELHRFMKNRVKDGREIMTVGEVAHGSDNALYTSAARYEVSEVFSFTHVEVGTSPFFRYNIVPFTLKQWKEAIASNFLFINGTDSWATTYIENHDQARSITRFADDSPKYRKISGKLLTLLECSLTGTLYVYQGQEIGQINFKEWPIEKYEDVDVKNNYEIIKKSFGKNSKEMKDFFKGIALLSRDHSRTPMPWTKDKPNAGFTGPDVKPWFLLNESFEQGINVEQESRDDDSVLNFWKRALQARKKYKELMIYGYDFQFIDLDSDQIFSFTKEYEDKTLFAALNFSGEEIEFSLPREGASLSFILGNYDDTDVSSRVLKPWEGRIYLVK
Procedure: as §1, §2

[6] = test system: β-GlcNAc-ase (Jack bean); assay: glycosidase inhibition assay, β-N-acetylglucosaminidase from Jack bean; assay type: biochemical; details: for % inhibition at 1 mM concentration of inhibitor: 1 mM inhibitor, pH 5.6, negative values mean activation; for activation of enzyme activity: 1 mM compound
Procedure: as §1, §2

[7] = test system: β-glucosidase (almond); assay: glycosidase inhibition assay, β-glucosidase from almond; assay type: biochemical; details: pH 5.6; for % inhibition at 1 mM concentration of inhibitor: 1 mM inhibitor
Procedure: as §1, §2

[8] = biological target: T6, β-glucosidase (Asp. niger) (Aspergillus niger, UniProt A2RAL4); assay: glycosidase inhibition assay, β-glucosidase from A. niger; assay type: biochemical; details: for inhibition at 1000 µM: pH 5.6, 1 mM inhibitor, pH 5.6, read-out: % inhibition at 1 mM concentration of inhibitor
T6 construct: purchased Sigma Chemical Co
T6 sequence (A2RAL4 20-860): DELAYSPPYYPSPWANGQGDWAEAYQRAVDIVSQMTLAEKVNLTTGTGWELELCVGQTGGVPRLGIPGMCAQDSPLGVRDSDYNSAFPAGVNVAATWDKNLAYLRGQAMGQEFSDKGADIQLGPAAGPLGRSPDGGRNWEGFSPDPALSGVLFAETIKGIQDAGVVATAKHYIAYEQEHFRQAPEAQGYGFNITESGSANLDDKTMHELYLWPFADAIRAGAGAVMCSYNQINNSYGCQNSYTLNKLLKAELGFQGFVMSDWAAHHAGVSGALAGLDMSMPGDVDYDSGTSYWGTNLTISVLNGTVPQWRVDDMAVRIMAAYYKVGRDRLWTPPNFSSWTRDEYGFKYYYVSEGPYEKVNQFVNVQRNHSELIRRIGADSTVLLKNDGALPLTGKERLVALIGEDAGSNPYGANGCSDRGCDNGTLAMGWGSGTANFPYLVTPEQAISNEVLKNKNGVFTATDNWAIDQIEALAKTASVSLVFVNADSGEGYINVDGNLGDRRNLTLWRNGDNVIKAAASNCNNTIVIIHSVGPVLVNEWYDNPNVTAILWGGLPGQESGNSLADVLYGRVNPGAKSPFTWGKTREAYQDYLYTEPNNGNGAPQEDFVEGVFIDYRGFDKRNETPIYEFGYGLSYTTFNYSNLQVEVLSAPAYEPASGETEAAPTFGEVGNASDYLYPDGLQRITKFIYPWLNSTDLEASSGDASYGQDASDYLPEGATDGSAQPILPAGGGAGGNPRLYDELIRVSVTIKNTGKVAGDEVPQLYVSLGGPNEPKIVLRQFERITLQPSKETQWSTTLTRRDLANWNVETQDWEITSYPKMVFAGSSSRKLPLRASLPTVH
Procedure: as §1, §2

[9] = test system: α-rhamnosidase (Asp. niger); assay: glycosidase inhibition assay, α-rhamnosidase from A. niger; assay type: biochemical; details: 1 mM inhibitor; pH 5.6
Procedure: as §1, §2

[10] = biological target: fucosidase; design: method as in PMID 27138139; details: cited from earlier work
[11] = pH 5.6, read-out: % inhibition at 1 mM concentration of inhibitor
[12] = 1 mM inhibitor, pH 5.6, read-out: % inhibition at 1 mM concentration of inhibitor

With `OC[C@@H]1[C@@H](O)[C@H](O)CN1Cc1cccc(CN2C[C@@H](O)[C@H](O)[C@H]2CO)c1` [13a] the inhibition at 1000 µM [1] was 38%, the inhibition at 1000 µM [2] was 40% and the inhibition at 1000 µM [3, 11] was 75%. The inhibition at 1000 µM [4] was 93%, the inhibition at 1000 µM ([5]; pH 6.2) was 88% and the “% inhibition at 1 mM concentration of inhibitor” value (shortened to “% inhibition”) [6] was “NI (NI means no impact on enzyme activity (less than 5% inhibition or activation))”. For the same molecule, the “% inhibition” value [7] was 13%, the inhibition at 1000 µM [8] was 24% and the “% inhibition” value [9] was 67%.
With `OC[C@@H]1[C@@H](O)[C@H](O)CN1Cc1ccc(CN2C[C@@H](O)[C@H](O)[C@H]2CO)cc1` [13b] the inhibition at 1000 µM [1] was < 5%, the inhibition at 1000 µM [2] was 77% and the inhibition at 1000 µM [3, 12] was 84%. The IC50 [4] was 2.8 µM, the inhibition at 1000 µM [4] was > 95% and the IC50 [5] was 39 µM. The inhibition at 1000 µM ([5]; pH 6.2) was 95%, the “% inhibition” value [6] was “NI (NI means no impact on enzyme activity (less than 5% inhibition or activation))” and the “% inhibition” value [7] was 16%. For the same molecule, the inhibition at 1000 µM [8] was 43% and the “% inhibition” value [9] was 24%.
In the case of `OC[C@@H]1[C@@H](O)[C@H](O)CN1CCCCCCCCN1C[C@@H](O)[C@H](O)[C@H]1CO` [13c], the inhibition at 1000 µM [1] is reported as 61%, the inhibition at 1000 µM [2] is reported as 92% and the inhibition at 1000 µM [3, 12] is reported as > 95%. For the same molecule, the IC50 ([3]; pH 5.6) was 18 µM, the IC50 [4] was 31 µM and the inhibition at 1000 µM [4] was > 95%. For the same molecule, the inhibition at 1000 µM ([5]; pH 6.2) was 88%, the “% inhibition” value [6] was “NI (NI means no impact on enzyme activity (less than 5% inhibition or activation))” and the “% inhibition” value [7] was 60%. For the same molecule, the inhibition at 1000 µM [8] was 94% and the “% inhibition” value [9] was 69%.
Molecule `OC[C@@H]1[C@@H](O)[C@H](O)CN1CCOCCOCCN1C[C@@H](O)[C@H](O)[C@H]1CO` [13d] has an inhibition at 1000 µM [1] of 22%, an inhibition at 1000 µM [2] of ~90% and an inhibition at 1000 µM [3, 11] of 82%. For the same molecule, the inhibition at 1000 µM [4] was 92%, the inhibition at 1000 µM ([5]; pH 6.2) was ~90% and the “% inhibition” value [6] was “–38% ^c”. The “activation of enzyme activity” value [6] was 38%, the “% inhibition” value [7] was 24% and the inhibition at 1000 µM [8] was ~90%. The “% inhibition” value [9] was 46%.
For `OC[C@@H]1[C@@H](O)[C@H](O)CN1CCCOCCOCCOCCCN1C[C@@H](O)[C@H](O)[C@H]1CO` [13e], the inhibition at 1000 µM [1] was 22%, the inhibition at 1000 µM [2] was 72% and the inhibition at 1000 µM [3, 12] was > 95%. For the same molecule, the IC50 ([3]; pH 5.6) was 34 µM, the inhibition at 1000 µM [4] was 81% and the inhibition at 1000 µM ([5]; pH 6.2) was 65%. For the same molecule, the “% inhibition” value [6] was “NI (NI means no impact on enzyme activity (less than 5% inhibition or activation))”, the “% inhibition” value [7] was 23% and the inhibition at 1000 µM [8] was 91%. For the same molecule, the “% inhibition” value [9] was 18%.
In the case of `C=CC[C@@H]1[C@@H](O)[C@H](O)[C@@H](CO)N1CCOCCOCCN1[C@H](CO)[C@@H](O)[C@H](O)[C@H]1CC=C` [16d], the inhibition at 1000 µM [1] is reported as < 5%, the inhibition at 1000 µM [2] is reported as 26% and the inhibition at 1000 µM [3, 11] is reported as 32%. The inhibition at 1000 µM [4] was 58%, the “enhancement of enzyme activity” value ([5]; activation, 1 mM compound) was 20% and the inhibition at 1000 µM ([5]; pH 6.2) was -20%. The “% inhibition” value [6] was “–33% ^c”, the “activation of enzyme activity” value [6] was 33% and the “% inhibition” value [7] was 25%. The inhibition at 1000 µM [8] was 51% and the “% inhibition” value [9] was 25%.
In the case of `OC[C@H]1NC[C@@H](O)[C@@H]1O` [DAB-1], the inhibition at 1000 µM [1] is reported as 11%, the IC50 [2] is reported as 7.8 µM and the inhibition at 1000 µM [2] is reported as > 95%. For the same molecule, the inhibition at 1000 µM [3, 12] was > 95%, the IC50 ([3]; pH 5.6) was 49 µM and the inhibition at 1000 µM [4] was 76%. The inhibition at 1000 µM ([5]; pH 6.2) was > 95%, the IC50 ([5]; pH 6.2, determined when >95% inhibition at 1 mM, read-out: IC50) was 0.69 µM and the “% inhibition” value [6] was 14%. For the same molecule, the “% inhibition” value [7] was 95%, the IC50 [7] was 79 µM and the IC50 [8] was 62 µM. For the same molecule, the inhibition at 1000 µM [8] was > 95% and the “% inhibition” value [9] was 34%.
In the case of `C[C@@H]1N[C@@H](CCCC[C@@H]2N[C@@H](C)[C@@H](O)[C@H]2O)[C@H](O)[C@@H]1O` [compound 6], the IC50 [10] is given as 0.108 µM and the “fold increase in the inhibition potency relative to the monomer” value ([10]; dimer vs monomer) is given as 19 fold.
